Data: patent US8053573B2, “Monomer 5, 6-diphenyl-1.2.4-traizinic derivatives and the use thereof” (Pierre Fabre Dermo-Cosmetique, priority 2004, dated 2011)

Columns and labels:
Type in all cases: physicochemical
[1] = Photostability in solution in a chemical solvent (Suntest CPS+); conditions: 25 μg deposited from methanol, absorbance vs non-irradiated control, in % (unit assumed); for Photostability at 10 MED mean: Suntest irradiation 10 MED; for Photostability at 20 MED mean: Suntest irradiation 20 MED
Description: A Suntest CPS+ (Atlas, Linsengenicht/Altenhasslan, Germany) was used. The Suntest makes it possible to reproduce the solar spectrum and thus to carry out exposures inside at any time without weather constraints.
The radiance of the solar simulator was carefully measured with a spectroradiometer (MSS 2044, Bielefeld, Germany). UVB and UVA intensities were 0.49 mW/cm^2 and 6.32 mW/cm^2, respectively. The MED value defined by COLIPA is 5.6 J/cm^2 in total UV (22). The UV total (UVA+UVB) accounts for 14.8% of the energy delivered by the lamp (power 460 W/m^2). An irradiation dose equivalent to 1 MED corresponds to 37.83 J/cm^2 (in total spectrum) delivered by the lamp.
The Suntest test duration is calculated using the following formula: t=H/E with: […]
The solutions of the compounds are prepared at a concentration of 500 μg/ml in methanol. 50 μl (25 μg) of each solution are deposited in a crystallizer, then irradiated in the Suntest at 5, 10 and/or 20 MED. A non-irradiated control is prepared (deposit of 50 μl of solution and addition of 2.450 ml of methanol). The solvent evaporates during irradiation and the products are taken up in 2.5 ml of methanol. After irradiation, the absorbance of each solution is measured with the UV-visible spectrophotometer (Varian CARY 50 Scan).

[2] = Spectral characteristics: molar extinction coefficient and specific absorbance; conditions: ethyl acetate, 10 μg/ml; for Maximum specific absorbance UVC: A1cm^1%
[3] = as above; conditions: ethyl acetate, 10 μg/ml; for Maximum specific absorbance UVA / Maximum specific absorbance UVB: A1cm^1%
Description: The calculation of the molar extinction coefficient (ε) is made from the Beer-Lambert law:
[formula] Wherein: A=absorbance I0=intensity of the incident light I=intensity of the transmitted light ε=molar extinction (or molar absorbance) coefficient in M^−1 cm^−1 l=path length in cm c=concentration in mol/l
The molar extinction coefficient can be expressed with respect to a given mass of the product. It thus makes it possible to be able to compare the coefficients of extinction between products for the same given quantity. This quantity is 1% by weight. The molar extinction coefficient thus becomes the specific absorbance (A1cm^1%).
[formula] Wherein: A1cm^1%=specific absorbance ε=molar extinction coefficient M=molar mass
The spectral characteristics of the compounds in comparison with commercial filters at a concentration of 10 μg/ml are summarized in tables 2-1 and 2-2.
Procedure: The products are dissolved in ethyl acetate to a concentration of 10 μg/ml. The spectra are measured using a dual-beam spectrophotometer (Varian CARY 50 Scan) between 290 nm and 400 nm.

[4] = Spectral distribution in UVA and UVB (290-400 nm); conditions: range from 290 nm to 400 nm
Description: The products tested are classified according to spectral distribution in UVA and UVB in a range from 290 nm to 400 nm.
It is possible to differentiate them according to their spectral distribution:
Products with a narrow spectrum: • Products absorbing in the range between 280 nm and 320 nm (UVB) • Products absorbing in the range between 320 nm and 400 nm (UVA) Products with a broad spectrum: • Products absorbing in UVB (280-320 nm) and UVA-II […] • Products covering UVB and UVA (280-400 nm).

[5] = In vitro SPF in a chemical solvent (Diffey and Robson); conditions: ethyl acetate solution, 10 μg/ml, transmittance 290-400 nm
Protocol: The in vitro methods of determining the protective effectiveness of sun products consist of measuring by transmission spectrophotometry the absorption spectrum of the filter in solution or of the product applied on a substrate with the aim of simulating the surface of the skin. The effectiveness against UVB and/or UVA rays, or the effect on the cutaneous response, are then determined by calculation, taking into account or not the UV radiation action spectrum for the damage considered.
The Sayre/Agin and Diffey/Robson method, used since the 1990s, involves a comparative measurement, with the aid of an integrating-sphere spectroradiometer, of the transition from 290 nm to 400 nm in 5 nm steps, the sample being subjected to UV radiation from a stable known source covering the whole of the UV spectrum (unfiltered xenon).
Diffey and Robson evaluate the erythemal response by the following calculation:
[formula] E(λ)=spectral irradiation in W(m^−2) (nm^−1) at 40° N sun at 20° zenith angle ε=erythematous capacity
The Diffey and Robson formula makes it possible to determine SPF from the measurement of transmittance between 290 nm and 400 nm. Transmittance is measured in solution in ethyl acetate at a concentration of 10 μg/ml using a UV-visible spectrophotometer (Varian CARY 50 Scan).

Compound	Photostability at 10 MED mean [1]	Photostability at 20 MED mean [1]	Maximum specific absorbance UVC [2]	Maximum molar extinction coefficient UVC [2] [M⁻¹ cm⁻¹]	Wavelength of maximum molar extinction coefficient UVC [2]	Wavelength of maximum specific absorbance UVC [2]	Maximum specific absorbance UVA [3]	Maximum molar extinction coefficient UVA [3] [M⁻¹ cm⁻¹]	Wavelength of maximum molar extinction coefficient UVA [3]	Wavelength of maximum specific absorbance UVA [3]	Spectral distribution [4]	Maximum specific absorbance UVB [3]	Maximum molar extinction coefficient UVB [3]	Wavelength of maximum molar extinction coefficient UVB [3]	Wavelength of maximum specific absorbance UVB [3]	SPF [5]
CCN(CC)c1ccc(-c2nnc(O)nc2-c2ccc(N(CC)CC)cc2)cc1 [JR18, 3-hydroxy-5,6-bis(4-diethylaminophenyl)-1,2,4-triazine]	82.86	57.37														
Oc1ccccc1-c1nnc(-c2ccccc2)c(-c2ccccc2)n1 [JR67, 3-(2-hydroxyphenyl)-5,6-diphenyl-1,2,4-triazine]			811	26300	at 280	at 280	502	16300	at 330	at 330						
Oc1ccc(-c2nnc(-c3ccccc3)c(-c3ccccc3)n2)cc1 [JR68, 3-(4-hydroxyphenyl)-5,6-diphenyl-1,2,4-triazine]	98.2	95.33	702	22800	at 280	at 280	424	13800	at 330	at 330	absorb in UVB (280-320 nm) and UVA-II (280-340 nm)					
COc1ccc(-c2nnc(-c3ccc(OC)cc3)c(-c3ccc(OC)cc3)n2)cc1 [JR70, 3-(4-methoxyphenyl)-5,6-bis(4-methoxyphenyl)-1,2,4-triazine]	44.51	30.83									absorb in UVB	982	29200 M⁻¹ cm⁻¹	at 310	at 310	
COc1ccc(-c2nnc(N)nc2-c2ccc(OC)cc2)cc1 [JR77, 3-amino-5,6-bis(4-methoxyphenyl)-1,2,4-triazine]	73.03	61.14	631	19300	at 280	at 280	249	7600	at 360	at 360	absorb in UVB (280-320 nm) and UVA-II (280-340 nm)					47.16
COc1ccc(-c2nnc(-c3ccccc3O)nc2-c2ccc(OC)cc2)cc1 [JR89, 3-(2-hydroxyphenyl)-5,6-bis(4-methoxyphenyl)-1,2,4-triazine]	97.39	98.72	502	19300	at 280	at 280	526 at	20300	at 335	335	absorb in UVB (280-320 nm) and UVA-II (280-340 nm)					
COc1ccc(-c2nnc(-c3cc(O)c(O)c(O)c3)nc2-c2ccc(OC)cc2)cc1 [JR115, 3-(3,4,5-hydroxyphenyl)-5,6-bis(4-methoxyphenyl)-1,2,4-triazine]	57.63	46.42									absorb in UVB (280-320 nm) and UVA-II (280-340 nm)	747	34300 M⁻¹ cm⁻¹	at 310	at 310	

The next lines start with results.

Photostability at 10 MED mean [1]	Photostability at 20 MED mean [1]	Maximum specific absorbance UVC [2]	Maximum molar extinction coefficient UVC [2] [M⁻¹ cm⁻¹]	Wavelength of maximum molar extinction coefficient UVC [2]	Wavelength of maximum specific absorbance UVC [2]	Maximum specific absorbance UVA [3]	Maximum molar extinction coefficient UVA [3] [M⁻¹ cm⁻¹]	Wavelength of maximum molar extinction coefficient UVA [3]	Wavelength of maximum specific absorbance UVA [3]	Spectral distribution [4]	Maximum specific absorbance UVB [3]	Maximum molar extinction coefficient UVB [3]	Wavelength of maximum molar extinction coefficient UVB [3]	Wavelength of maximum specific absorbance UVB [3]	Compound	SPF [5]
58.45	47.81	655 at	25800	at 270	270	498 at	19600	at 350	350	absorb in UVB and UVA	688 at	27100 at M^−1 cm^−1	300	300	COc1ccc(-c2nnc(-c3ccc(C#N)cc3)nc2-c2ccc(OC)cc2)cc1 [JR107, 3-(4-cyanophenyl)-5,6-bis(4-methoxyphenyl)-1,2,4-triazine]	
98.07	97.67					570	22469	at 340	at 340	absorb in UVB and UVA	721	28800 M⁻¹ cm⁻¹	at 295	at 295	COc1ccc(-c2nnc(-c3cccc(C#N)c3)nc2-c2ccc(OC)cc2)cc1 [JR113, 3-(3-cyanophenyl)-5,6-bis(4-methoxyphenyl)-1,2,4-triazine]	67.74
92.07	91.43					661	26000	at 325	at 352	absorb in UVB and UVA					COc1ccc(-c2nnc(-c3ccccc3C#N)nc2-c2ccc(OC)cc2)cc1 [JR114, 3-(2-cyanophenyl)-5,6-bis(4-methoxyphenyl)-1,2,4-triazine]	
						552	36400	at 345	at 345	absorb in UVB and UVA	556	36600 M⁻¹ cm⁻¹	at 305	at 305	CC(C)(C)CC(C)(C)c1cc(Cc2cc(C(C)(C)CC(C)(C)C)cc(-n3nc4ccccc4n3)c2O)c(O)c(-n2nc3ccccc3n2)c1 [Tinosorb M ®, reference compound]	54.07
